Laboratory results taken from patent publication US10508111B2, “6-[5-amino-6-(2-ethoxyethoxy)-imidazo[4,5-B]pyridin-3-yl]-nicotinonitrile derivatives and their use as IRAK inhibitors” (GALAPAGOS NV, priority 2015, dated 2019).
pIC50: −log10 of the molar value.

How the values were obtained:
Assay type in all cases: biochemical
[1] = molecular target: T1, human IRAK-4 (Homo sapiens, UniProt Q9NWZ3); assay: IC50 determination for human IRAK-4, radioactive filter plate assay; conditions: RIP140 substrate, 1 μM ATP + [γ-33P]ATP, 30° C., 45 min; read-out: hIRAK-4 IC50
T1 construct: purchased Carna Biosciences 09-145
T1 sequence (Q9NWZ3 1-460): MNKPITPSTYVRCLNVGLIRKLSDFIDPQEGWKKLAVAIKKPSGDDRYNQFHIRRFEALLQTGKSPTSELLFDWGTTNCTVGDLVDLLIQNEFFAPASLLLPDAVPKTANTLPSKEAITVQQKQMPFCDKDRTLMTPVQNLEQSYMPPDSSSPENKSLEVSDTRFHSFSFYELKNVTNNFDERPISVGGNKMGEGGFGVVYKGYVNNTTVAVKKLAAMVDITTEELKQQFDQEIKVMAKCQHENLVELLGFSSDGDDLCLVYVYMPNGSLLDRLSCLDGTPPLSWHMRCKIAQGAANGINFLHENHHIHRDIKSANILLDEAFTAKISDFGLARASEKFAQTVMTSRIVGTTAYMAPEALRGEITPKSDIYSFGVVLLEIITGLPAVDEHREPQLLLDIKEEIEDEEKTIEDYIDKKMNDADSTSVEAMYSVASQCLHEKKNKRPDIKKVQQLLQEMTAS
Procedure: The IC50 value for IRAK-4 is determined in a radioactive filter plate assay. The principle of the assay consists in the measurement of incorporated ^33P into the RIP140 substrate upon phosphorylation by the enzyme IRAK-4 using [γ-^33P]ATP and ATP. Unincorporated ^33P is removed by loading the samples on a filter plate (using a harvester, PerkinElmer) and 6 subsequent washing steps. Incorporated ^33P in RIP140 is measured by a scintillation counter (Topcount, PerkinElmer) after addition of MicroScint™-20 (PerkinElmer, 6013621) to the filter plates.
5 μL of a water dilution series of test compound (starting from 20 μM or 6.6 μM highest concentration), from a 100% DMSO stock solution, 1/5 dilution, is added to the wells (final DMSO concentration of 1% in reaction assay). IRAK-4 (Carna Biosciences, 09-145) and RIP140 (SEQ ID1, cf. Table VII) are used at a final concentration of 10 ng/mL and 4 μM, respectively. The enzyme and substrate are diluted in 25 mM Tris pH 7.5, 0.025% Triton X-100, 5 mM MnCl2, and 2 mM DTT to a total volume of 11 μL. The reaction is started by addition of 9 μL of 1 μM ATP (Sigma, A6419-5G)+0.25 μCi [γ-^33P]ATP (PerkinElmer, NEG602K001MC), diluted in the same buffer as enzyme and substrate. The mixture is incubated at 30° C. for 45 min. The reaction is terminated by adding 25 μL of 150 mM phosphoric acid (VWR, 1.00573.1000). Samples are transferred to filter plates and incorporated radioactivity is measured using a scintillation counter.
(§1) 10 μM staurosporine (1% DMSO) is used as positive control (100% inhibition); vehicle (water+1% DMSO) as negative control (0% inhibition).

[2] = molecular target: T2, CDK2 (Homo sapiens, UniProt P24941); assay: Kinase selectivity profiling (focused panel), radioactive filter plate assay: CDK2; conditions: Histone H1-derived peptide, 0.1 μM ATP, 60 min
T2 construct: purchased Carna Biosciences 04-103
Procedure: (§2) The purpose of this assay is to determine the activity and selectivity of a compound of the invention on a selected range of human kinases which may result in undesirable side-effects when inhibited (Dy & Adjei 2013; Force & Kolaja 2011).
(§3) The IC50 value for off-target kinases is determined in radioactive filter plate assays. The principle of the assays consists in the measurement of incorporated ^33P into a peptide substrate upon phosphorylation by the kinase enzyme using [γ-^33P]ATP and ATP. Unincorporated ^33P is removed by loading the samples on a filter plate (using a harvester, PerkinElmer) and 6 subsequent washing steps. Incorporated ^33P in the peptide substrate is measured by a scintillation counter (Topcount, PerkinElmer) after addition of MicroScint™-20 (PerkinElmer, 6013621) to the filter plates.
(§4) 5 μL of a water dilution series of test compound (starting from 20 μM or 6.6 μM highest concentration), from a 100% DMSO stock solution, 1/5 dilution, is added to the wells (final DMSO concentration of 1% in reaction assay). Enzyme and peptide substrate are used at optimized concentrations (cf. Table VI). The enzyme and substrate are diluted in assay buffer to a total volume of 11 μL. The reaction is started by addition of 9 μL of ATP+[γ-^33P]ATP, diluted in the same buffer as enzyme and substrate. The mixture is incubated at 30° C. The reaction is terminated by adding 25 μL of 150 mM phosphoric acid. Samples are transferred to filter plates and incorporated radioactivity is measured using a scintillation counter.
(§5) The incubation time, assay buffer composition, and concentrations of ATP, enzyme and substrate are reported in Table VI for example kinase off-target assays.
as §1

[3] = molecular target: T3, c-SRC (Homo sapiens, UniProt P12931); assay: Kinase selectivity profiling (focused panel), radioactive filter plate assay: c-SRC; conditions: PolyGT substrate, 0.25 μM ATP, 60 min
T3 construct: purchased Carna Biosciences 08-173
T3 sequence (P12931 whole entry): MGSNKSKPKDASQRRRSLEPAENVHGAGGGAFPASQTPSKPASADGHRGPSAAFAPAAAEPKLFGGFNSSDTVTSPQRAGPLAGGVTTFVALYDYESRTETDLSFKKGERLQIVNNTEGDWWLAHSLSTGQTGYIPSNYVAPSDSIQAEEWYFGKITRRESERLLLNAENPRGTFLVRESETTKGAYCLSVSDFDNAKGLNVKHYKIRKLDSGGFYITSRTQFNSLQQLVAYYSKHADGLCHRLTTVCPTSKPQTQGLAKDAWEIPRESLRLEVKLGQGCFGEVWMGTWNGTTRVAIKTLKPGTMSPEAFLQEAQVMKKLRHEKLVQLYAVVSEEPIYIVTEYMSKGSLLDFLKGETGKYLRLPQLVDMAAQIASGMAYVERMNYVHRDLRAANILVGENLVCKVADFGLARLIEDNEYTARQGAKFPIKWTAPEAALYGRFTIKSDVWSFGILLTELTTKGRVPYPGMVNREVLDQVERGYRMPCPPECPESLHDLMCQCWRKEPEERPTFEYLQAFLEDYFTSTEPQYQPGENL
Procedure: as §2, §3, §4, §5, §1

[4] = molecular target: T4, ABL (Homo sapiens, UniProt P00519); assay: Kinase selectivity profiling (focused panel), radioactive filter plate assay: ABL; conditions: PolyGT substrate, 0.5 μM ATP, 60 min
T4 construct: purchased Life Technologies P3049
T4 sequence (P00519 whole entry): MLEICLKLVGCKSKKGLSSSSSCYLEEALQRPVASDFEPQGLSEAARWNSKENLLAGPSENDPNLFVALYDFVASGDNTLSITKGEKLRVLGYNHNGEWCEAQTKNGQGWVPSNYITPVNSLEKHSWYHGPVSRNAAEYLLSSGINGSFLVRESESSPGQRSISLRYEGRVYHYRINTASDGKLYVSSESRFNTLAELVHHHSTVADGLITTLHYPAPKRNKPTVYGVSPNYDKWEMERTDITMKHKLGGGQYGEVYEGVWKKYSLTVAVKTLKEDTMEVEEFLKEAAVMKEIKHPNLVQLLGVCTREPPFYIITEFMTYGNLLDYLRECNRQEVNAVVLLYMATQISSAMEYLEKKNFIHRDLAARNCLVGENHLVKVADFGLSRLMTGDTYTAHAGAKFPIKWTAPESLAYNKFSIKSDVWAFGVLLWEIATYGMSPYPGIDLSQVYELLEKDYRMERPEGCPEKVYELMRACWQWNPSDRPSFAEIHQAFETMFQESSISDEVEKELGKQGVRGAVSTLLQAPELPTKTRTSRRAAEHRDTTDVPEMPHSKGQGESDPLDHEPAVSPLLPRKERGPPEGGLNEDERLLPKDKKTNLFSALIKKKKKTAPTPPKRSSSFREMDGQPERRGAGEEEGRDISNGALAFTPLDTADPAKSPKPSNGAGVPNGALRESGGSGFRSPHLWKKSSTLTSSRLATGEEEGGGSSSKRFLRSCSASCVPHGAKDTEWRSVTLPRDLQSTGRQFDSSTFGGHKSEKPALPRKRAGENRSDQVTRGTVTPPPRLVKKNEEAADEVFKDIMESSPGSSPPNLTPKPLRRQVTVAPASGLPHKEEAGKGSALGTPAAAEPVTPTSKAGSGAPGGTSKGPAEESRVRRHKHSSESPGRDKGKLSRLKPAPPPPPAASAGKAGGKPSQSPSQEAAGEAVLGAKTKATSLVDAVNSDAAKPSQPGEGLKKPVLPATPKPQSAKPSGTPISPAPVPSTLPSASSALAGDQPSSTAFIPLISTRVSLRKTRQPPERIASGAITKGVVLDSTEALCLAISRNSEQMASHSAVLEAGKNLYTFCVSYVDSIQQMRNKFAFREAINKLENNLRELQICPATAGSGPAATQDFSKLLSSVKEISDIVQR
Procedure: as §2, §3, §4, §5, §1

[5] = molecular target: T5, Aurora B (Homo sapiens, UniProt Q96GD4); assay: Kinase selectivity profiling (focused panel), radioactive filter plate assay: Aurora B; conditions: Histone H3 peptide, 1.3 μM ATP, 90 min
T5 construct: purchased Carna BioSciences 05-102
T5 sequence (Q96GD4 whole entry): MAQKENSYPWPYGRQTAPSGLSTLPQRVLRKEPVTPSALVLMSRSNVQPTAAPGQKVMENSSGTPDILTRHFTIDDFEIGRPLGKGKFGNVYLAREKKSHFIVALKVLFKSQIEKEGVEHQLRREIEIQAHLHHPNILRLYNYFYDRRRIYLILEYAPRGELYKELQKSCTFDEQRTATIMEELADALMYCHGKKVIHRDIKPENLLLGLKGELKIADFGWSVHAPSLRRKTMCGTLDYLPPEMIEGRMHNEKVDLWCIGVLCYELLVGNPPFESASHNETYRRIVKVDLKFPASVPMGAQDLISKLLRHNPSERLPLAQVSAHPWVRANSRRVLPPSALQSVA
T5 sequence (Q9NQS7 803-918 partner limits assumed): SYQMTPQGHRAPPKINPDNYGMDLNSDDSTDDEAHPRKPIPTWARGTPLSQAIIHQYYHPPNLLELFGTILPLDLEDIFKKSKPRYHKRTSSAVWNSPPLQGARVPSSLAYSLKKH
Procedure: as §2, §3
as §4, with “The reaction is started by addition of 9 μL of ATP+[γ-^33P]ATP, diluted in the same buffer as enzyme and substrate. The mixture is incubated at 30° C. The reaction is terminated by adding 25 μL of 150 mM phosphoric acid.” left out, “counter. […]” for “counter.”

Row | pIC50 [1] | pIC50 [2] | pIC50 [3] | pIC50 [4] | pIC50 [5] | Compound
1 | 8.20 | < 5.18 | < 5.88 |  |  | N#Cc1ccc(-n2cnc3cc(OCCOCCO)c(NC4CCOCC4)nc32)nc1 [Compound 1, 6-[6-[2-(2-hydroxy-ethoxy)-ethoxy]-5-(tetrahydro-pyran-4-ylamino)-imidazo[4,5-b]pyridin-3-yl]-nicotinonitrile]
2 | 9.02 | 6.03 | 6.32 | 6.86 | < 5.73 | C[C@]1(O)CC[C@@H](Nc2nc3c(cc2OCCOCCO)ncn3-c2ccc(C#N)cn2)CC1 [Compound 12, 6-[6-[2-(2-hydroxyethoxy)ethoxy]-5-[((cis-1,4)-4-hydroxy-4-methylcyclohexyl)amino]imidazo[4,5-b]pyridin-3-yl]pyridine-3-carbonitrile]
